Data reported in patent US10981926B2 (Janssen Pharmaceutica NV, priority 2016, dated 2021).

Legend:
Type in all cases: cell-based
[1] = target: T1, F876L mutant Androgen Receptor (AR-F876L) (Homo sapiens (Human), UniProt P10275, F877L); assay: LNCaP-AR-F876L ANT reporter assay (antagonist mode); conditions: for Emax: read-out: LNCaP-AR-F876L ANT MAX % Inh; for IC50: pIC50 = −Log10(IC50 in Molar), read-out: LNCaP-AR-F876L ANT pIC50 (converted)
[2] = target: T2, wild-type Androgen Receptor (AR-wt) (Homo sapiens (Human), UniProt P10275); assay: LNCaP-AR-wt ANT reporter assay (antagonist mode); conditions: for Emax: read-out: LNCaP-AR-wt ANT MAX % Inh; for IC50: pIC50 = −Log10(IC50 in Molar), read-out: LNCaP-AR-wt ANT pIC50 (converted)
[3] = target: T2, wild-type Androgen Receptor (AR-wt); assay: LNCaP-AR-wt AG reporter assay (agonist mode); conditions: for Emax: read-out: LNCaP-AR-wt AG MAX % Stim; for EC50: pEC50 = −Log10(EC50 in Molar), read-out: LNCaP-AR-wt AG pEC50 (converted)
[4] = target: T1, F876L mutant Androgen Receptor (AR-F876L); assay: LNCaP-AR-F876L AG reporter assay (agonist mode); conditions: for Emax: read-out: LNCaP-AR-F876L AG MAX % Stim; for EC50: pEC50 = −Log10(EC50 in Molar), read-out: LNCaP-AR-F876L AG pEC50 (converted)
[5] = antagonist mode, maximum % inhibition of R1881 control response over tested concentration range
[6] = agonist mode, maximum % stimulation over tested concentration range
[7] = maximum % inhibition of R1881 control response over the tested concentration range
[8] = maximum % stimulation (agonist response) over the tested concentration range

T2 sequence (P10275 whole entry): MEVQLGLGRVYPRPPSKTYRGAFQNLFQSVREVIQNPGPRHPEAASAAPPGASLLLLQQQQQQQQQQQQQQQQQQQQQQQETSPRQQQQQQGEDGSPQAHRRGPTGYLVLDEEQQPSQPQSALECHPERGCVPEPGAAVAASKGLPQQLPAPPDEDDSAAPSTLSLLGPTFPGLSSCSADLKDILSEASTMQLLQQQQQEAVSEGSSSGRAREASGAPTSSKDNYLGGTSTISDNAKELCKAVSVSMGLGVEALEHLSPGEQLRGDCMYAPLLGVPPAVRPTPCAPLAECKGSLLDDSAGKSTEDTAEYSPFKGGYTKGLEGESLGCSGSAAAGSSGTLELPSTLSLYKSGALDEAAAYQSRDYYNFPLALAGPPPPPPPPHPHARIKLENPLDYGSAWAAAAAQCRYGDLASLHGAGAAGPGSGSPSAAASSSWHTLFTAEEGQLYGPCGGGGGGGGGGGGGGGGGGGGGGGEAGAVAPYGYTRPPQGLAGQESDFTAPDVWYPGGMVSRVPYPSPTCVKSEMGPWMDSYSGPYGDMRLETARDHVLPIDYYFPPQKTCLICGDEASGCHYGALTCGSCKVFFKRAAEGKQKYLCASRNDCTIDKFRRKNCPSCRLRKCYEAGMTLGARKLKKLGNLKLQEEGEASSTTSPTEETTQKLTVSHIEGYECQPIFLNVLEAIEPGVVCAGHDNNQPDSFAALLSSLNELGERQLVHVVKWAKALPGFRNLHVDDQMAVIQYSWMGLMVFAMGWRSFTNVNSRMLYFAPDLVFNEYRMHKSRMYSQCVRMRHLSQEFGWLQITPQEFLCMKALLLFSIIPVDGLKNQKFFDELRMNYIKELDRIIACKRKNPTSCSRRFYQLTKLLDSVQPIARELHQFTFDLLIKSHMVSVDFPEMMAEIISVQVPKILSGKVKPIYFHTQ
T1 sequence (P10275 whole entry F877L): as the sequence (P10275 whole entry) above, with F877L counted along it

| Emax [1, 5] | IC50 ([1]; antagonist mode) | Emax [2, 5] | IC50 ([2]; antagonist mode) | Emax [3, 6] | EC50 ([3]; agonist mode) | Emax [4, 6] | EC50 ([4]; agonist mode) | Emax [1, 7] | Emax [2, 7] | Emax [3, 8] | Emax [4, 8] | LNCaP-AR-F876L AG MAX % Stim [4, 8] | SMILES |
| --- | --- | --- | --- | --- | --- | --- | --- | --- | --- | --- | --- | --- | --- |
| 104% | 170 nM | 104% | 219 nM | -0.2% | > 15100 nM | 0.3% | > 15100 nM |  |  |  |  |  | N#Cc1ncc(N2C(=O)C3(CCC3)N(c3ccc(OC4CCNC5(CCC5)C4)nc3)C2=S)cc1C(F)(F)F (racemic) [Cpd 188, (R,S)-5-[8-[6-(9-azaspiro[3.5]nonan-6-yloxy)-3-pyridyl]-5-oxo-7-thioxo-6,8-diazaspiro[3.4]octan-6-yl]-3-(trifluoromethyl)pyridine-2-carbonitrile] |
| 103% | 186 nM | 103% | 155 nM | -0.3% | > 15100 nM | 0.4% | > 15100 nM |  |  |  |  |  | CN1CCC(Oc2ccc(N3C(=S)N(c4cnc(C#N)c(C(F)(F)F)c4)C(=O)C34CCC4)cn2)CC12CCC2 (racemic) [Cpd 194, (R,S)-5-[8-[6-[(9-methyl-9-azaspiro[3.5]nonan-6-yl)oxy]-3-pyridyl]-5-oxo-7-thioxo-6,8-diazaspiro[3.4]octan-6-yl]-3-(trifluoromethyl)pyridine-2-carbonitrile] |
| 100% | 229 nM | 101% | 372 nM | 0.5% | > 15100 nM | 0.4% | > 15100 nM |  |  |  |  |  | N#Cc1ncc(N2C(=O)C3(CCC3)N(c3ccc(O[C@@H]4CCN[C@H](CO)C4)cc3)C2=S)cc1C(F)(F)F (racemic) [Cpd 223, 5-[8-(2SR,4RS)[4-[[2-(hydroxymethyl)-4-piperidyl]oxy]phenyl]-5-oxo-7-thioxo-6,8-diazaspiro[3.4]octan-6-yl]-3-(trifluoromethyl)pyridine-2-carbonitrile] |
| 100% | 36.3 nM | 101% | 60.3 nM | 0.4% | > 15100 nM | 0.2% | > 15100 nM |  |  |  |  |  | CN1CC[C@@H](Oc2ccc(N3C(=S)N(c4cnc(C#N)c(C(F)(F)F)c4)C(=O)C34CCC4)cc2)C[C@H]1CO (racemic) [Cpd 226, 5-[8-(2SR,4RS)[4-[[2-(hydroxymethyl)-1-methyl-4-piperidyl]oxy]phenyl]-5-oxo-7-thioxo-6,8-diazaspiro[3.4]octan-6-yl]-3-(trifluoromethyl)pyridine-2-carbonitrile] |
|  | 324 nM |  | 407 nM |  | > 15100 nM |  | > 15100 nM | 98.9% | 97.8% | 2.2% | 1.8% |  | Cc1cc(N2C(=O)C3(CCC3)N(c3ccc(-c4cn[nH]c4)cc3)C2=S)cnc1C#N [Cpd 3, 3-methyl-5-[5-oxo-8-[4-(1H-pyrazol-4-yl)phenyl]-7-thioxo-6,8-diazaspiro[3.4]octan-6-yl]pyridine-2-carbonitrile] |
|  | 661 nM |  | 676 nM |  | > 15100 nM |  | > 15100 nM | 90.3% | 98.8% | 1.2% | 3.3% |  | COc1cc(N2C(=S)N(c3cnc(C#N)c(C)c3)C(=O)C23CCC3)ccc1-c1ccc(C)o1 [Cpd 5, 5-{8-[3-methoxy-4-(5-methyl(2-furyl))phenyl]-5-oxo-7-thioxo-6,8-diazaspiro[3.4]oct-6-yl}-3-methylpyridine-2-carbonitrile] |
|  | 191 nM |  | 295 nM |  | > 15100 nM |  | > 15100 nM | 98.1% | 99.7% | 0.3% | 0.9% |  | COCc1ccc(-c2ccc(N3C(=S)N(c4cnc(C#N)c(C)c4)C(=O)C34CCC4)cc2)o1 [Cpd 6, 5-(8-{4-[5-(methoxymethyl)(2-furyl)]phenyl}-5-oxo-7-thioxo-6,8-diazaspiro[3.4]oct-6-yl)-3-methylpyridine-2-carbonitrile] |
|  | 135 nM |  | 288 nM |  | > 15100 nM |  | > 15100 nM | 98.2% | 99.1% | 0.3% | 2.8% |  | Cc1cc(N2C(=O)C3(CCC3)N(c3ccc(-c4cnn(C(N)=O)c4)cc3)C2=S)cnc1C#N [Cpd 7, 4-{4-[7-(6-cyano-5-methyl(3-pyridyl))-8-oxo-6-thioxo-5,7-diazaspiro[3.4]oct-5-yl]phenyl}pyrazolecarboxamide] |
|  | 1150 nM |  | 1170 nM |  | > 15100 nM |  | > 15100 nM | 96% | 86.6% | 0.4% | -0.1% |  | CNC(=O)Cc1ccc(N2C(=S)N(c3cnc(C#N)c(C)c3)C(=O)C23CCC3)cc1 [Cpd 8, 2-{4-[7-(6-cyano-5-methyl(3-pyridyl))-8-oxo-6-thioxo-5,7-diazaspiro[3.4]oct-5-yl]phenyl}-N-methylacetamide] |
|  | 575 nM |  | 1200 nM |  | > 15100 nM |  | > 15100 nM | 98.4% | 94.2% | 0.1% | 0.5% |  | Cc1cc(N2C(=O)C3(CCC3)N(c3ccc(N4CCNC4=O)cc3)C2=S)cnc1C#N [Cpd 9, 3-Methyl-5-{5-oxo-8-[4-(2-oxoimidazolidinyl)phenyl]-7-thioxo-6,8-diazaspiro[3.4]oct-6-yl}pyridine-2-carbonitrile] |
|  | 275 nM |  | 339 nM |  | > 15100 nM |  | > 15100 nM | 100% | 102% | 0.5% | 0.9% |  | CCNC(=O)n1cc(-c2ccc(N3C(=S)N(c4cnc(C#N)c(C)c4)C(=O)C34CCC4)cc2)cn1 [Cpd 10, (4-{4-[7-(6-cyano-5-methyl(3-pyridyl))-8-oxo-6-thioxo-5,7-diazaspiro[3.4]oct-5-yl]phenyl}pyrazolyl)-N-ethylcarboxamide] |
|  | 117 nM |  | 661 nM |  | > 15100 nM |  | > 15100 nM | 98.5% | 101% | 0.5% | 0.7% |  | N#Cc1ncc(N2C(=O)C3(CCC3)N(c3ccc(OC4CCSCC4)cc3)C2=S)cc1C(F)(F)F [Cpd 12, 5-[5-oxo-8-(4-thian-4-yloxyphenyl)-7-thioxo-6,8-diazaspiro[3.4]oct-6-yl]-3-(trifluoromethyl)pyridine-2-carbonitrile] |
|  | 363 nM |  | 537 nM |  | > 15100 nM |  | > 15100 nM | 98.1% | 101% | 0.5% | 1% |  | N#Cc1ncc(N2C(=O)C3(CCC3)N(c3ccc(OC4CCS(=O)(=O)CC4)cc3)C2=S)cc1C(F)(F)F [Cpd 13, 5-{8-[4-(1,1-dioxothian-4-yloxy)phenyl]-5-oxo-7-thioxo-6,8-diazaspiro[3.4]oct-6-yl}-3-(trifluoromethyl)pyridine-2-carbonitrile] |
|  | 234 nM |  | 562 nM |  | > 15100 nM |  | > 15100 nM | 98.4% | 97.1% | 0.4% | 0.2% |  | N#Cc1ncc(N2C(=O)C3(CCC3)N(c3ccc(OC4CCN(CCCF)CC4)cc3)C2=S)cc1C(F)(F)F [Cpd 14, 5-(5-(4-((1-(3-fluoropropyl)piperidin-4-yl)oxy)phenyl)-8-oxo-6-thioxo-5,7-diazaspiro[3.4]octan-7-yl)-3-(trifluoromethyl)picolinonitrile] |
|  | 191 nM |  | 240 nM |  | > 15100 nM |  | > 15100 nM | 100% | 101% | -0.1% | 1.1% |  | COc1ccc(N2C(=S)N(c3cnc(C#N)c(C(F)(F)F)c3)C(=O)C23CCC3)cn1 [Cpd 15, 5-[8-(6-methoxy-3-pyridyl)-5-oxo-7-thioxo-6,8-diazaspiro[3.4]octan-6-yl]-3-(trifluoromethyl)pyridine-2-carbonitrile] |
|  | 363 nM |  | 1120 nM |  | > 15100 nM |  | > 15100 nM | 97.5% | 98.8% | 0.5% | 0.8% |  | CN1CC[C@@H](Oc2ccc(N3C(=S)N(c4cnc(C#N)c(C(F)(F)F)c4)C(=O)C34CCC4)cc2)C1 [Cpd 16, 5-[8-[4-[(3R)-1-methylpyrrolidin-3-yl]oxyphenyl]-5-oxo-7-thioxo-6,8-diazaspiro[3.4]octan-6-yl]-3-(trifluoromethyl)pyridine-2-carbonitrile] |
|  | 457 nM |  | 1510 nM |  | > 15100 nM |  | > 15100 nM | 100% | 98.5% | 0.3% |  | 0.1% | N#Cc1ncc(N2C(=O)C3(CCC3)N(c3ccc(OC4CCCNCC4)cc3)C2=S)cc1C(F)(F)F (stereo not shown) [Cpd 17, 5-[8-(4-azaperhydroepin-4-yloxyphenyl)-5-oxo-7-thioxo-6,8-diazaspiro[3.4]oct-6-yl]-3-(trifluoromethyl)pyridine-2-carbonitrile] |
